Reference: the NIST ThermoML archive (doi:10.1021/je700699u)

Experiment: cn = amount concentration of the nth substance listed, in mol/dm3
Conditions: 101 kPa, Liquid

N[C@@H](CC(=O)O)C(=O)[O-].[K+] [potassium (S)-2-amino-3-carboxypropanoate] + O
Conditions	mass density, 298.15 K [kg/m3]	mass density, 303.15 K [kg/m3]	mass density, 313.15 K [kg/m3]	mass density, 323.15 K [kg/m3]	mass density, 333.15 K [kg/m3]	viscosity, 298.15 K [mPa·s]	viscosity, 303.15 K [mPa·s]	viscosity, 313.15 K [mPa·s]	viscosity, 323.15 K [mPa·s]	viscosity, 333.15 K [mPa·s]
c1 = 0.255	1029	1027	1024	1020	1015	0.992	0.887	0.725	0.613	0.525
c1 = 0.47	1059	1057	1053	1049	1045	1.104	0.998	0.816	0.693	0.593
c1 = 0.708	1089	1087	1083	1079	1074	1.239	1.115	0.914	0.771	0.663
c1 = 0.979	1119	1117	1113	1109	1105	1.419	1.269	1.041	0.865	0.743
c1 = 1.208	1147	1145	1141	1137	1133	1.615	1.45	1.185	0.994	0.836
c1 = 1.449	1176	1173	1169	1166	1162	1.856	1.667	1.353	1.142	0.957

N[C@@H](CCC(=O)O)C(=O)[O-].[K+] [potassium (S)-2-amino-4-carboxybutanoate] + O
Conditions	mass density, 298.15 K [kg/m3]	mass density, 303.15 K [kg/m3]	mass density, 313.15 K [kg/m3]	mass density, 323.15 K [kg/m3]	mass density, 333.15 K [kg/m3]	viscosity, 298.15 K [mPa·s]	viscosity, 303.15 K [mPa·s]	viscosity, 313.15 K [mPa·s]	viscosity, 323.15 K [mPa·s]	viscosity, 333.15 K [mPa·s]
c1 = 0.248	1029	1027	1024	1019	1017	1.011	0.908	0.744	0.623	0.535
c1 = 0.493	1059	1057	1054	1049	1047	1.163	1.041	0.854	0.713	0.611
c1 = 0.733	1088	1086	1083	1078	1076	1.344	1.199	0.982	0.817	0.699
c1 = 1	1117	1116	1112	1107	1105	1.579	1.404	1.143	0.953	0.809
c1 = 1.24	1145	1143	1139	1134	1132	1.844	1.644	1.336	1.101	0.933
c1 = 1.469	1173	1171	1167	1162	1160	2.194	1.962	1.57	1.295	1.089

N=C(N)NCCC[C@H](N)C(=O)[O-].[K+] [potassium L-argininate] + O
Conditions	mass density, 298.15 K [kg/m3]	mass density, 303.15 K [kg/m3]	mass density, 313.15 K [kg/m3]	mass density, 323.15 K [kg/m3]	mass density, 333.15 K [kg/m3]	viscosity, 298.15 K [mPa·s]	viscosity, 303.15 K [mPa·s]	viscosity, 313.15 K [mPa·s]	viscosity, 323.15 K [mPa·s]	viscosity, 333.15 K [mPa·s]
c1 = 0.238	1021	1019	1016	1011	1007	1.026	0.917	0.75	0.63	0.539
c1 = 0.479	1043	1041	1037	1032	1027	1.215	1.098	0.886	0.738	0.632
c1 = 0.725	1064	1062	1058	1053	1048	1.431	1.276	1.035	0.856	0.723
c1 = 0.971	1087	1085	1080	1075	1069	1.882	1.553	1.244	1.019	0.848

N[C@@H](Cc1ccccc1)C(=O)[O-].[K+] [potassium L-phenylalaninate] + O
Conditions	mass density, 298.15 K [kg/m3]	mass density, 303.15 K [kg/m3]	mass density, 313.15 K [kg/m3]	mass density, 323.15 K [kg/m3]	mass density, 333.15 K [kg/m3]	viscosity, 298.15 K [mPa·s]	viscosity, 303.15 K [mPa·s]	viscosity, 313.15 K [mPa·s]	viscosity, 323.15 K [mPa·s]	viscosity, 333.15 K [mPa·s]
c1 = 0.25	1015	1014	1010	1005	1001	1.059	0.938	0.769	0.641	0.549
c1 = 0.496	1032	1031	1027	1022	1017	1.224	1.092	0.884	0.738	0.631
c1 = 0.745	1051	1049	1044	1039	1034	–	–	–	–	–
c1 = 0.746	–	–	–	–	–	1.441	1.279	1.032	0.852	0.72
c1 = 0.996	1067	1065	1060	1055	1049	1.695	1.495	1.194	0.98	0.823
c1 = 1.226	1084	1081	1077	1071	1066	–	–	–	–	–
c1 = 1.227	–	–	–	–	–	2.03	1.782	1.41	1.15	0.963
c1 = 1.453	1100	1097	1092	1087	1081	2.483	2.169	1.702	1.377	1.139

O=C([O-])[C@@H]1CCCN1.[K+] [potassium L-prolinate] + O
Conditions	mass density, 298.15 K [kg/m3]	mass density, 303.15 K [kg/m3]	mass density, 313.15 K [kg/m3]	mass density, 323.15 K [kg/m3]	mass density, 333.15 K [kg/m3]	viscosity, 298.15 K [mPa·s]	viscosity, 303.15 K [mPa·s]	viscosity, 313.15 K [mPa·s]	viscosity, 323.15 K [mPa·s]	viscosity, 333.15 K [mPa·s]
c1 = 0.507	1028	1027	1023	1019	1014	1.107	0.986	0.799	0.664	0.565
c1 = 1.01	1059	1057	1053	1048	1043	1.4	1.242	0.992	0.816	0.685
c1 = 1.523	1089	1087	1082	1077	1072	1.811	1.59	1.251	1.017	0.846
c1 = 2.01	1118	1115	1110	1105	1100	2.365	2.061	1.599	1.286	1.061
c1 = 2.521	1146	1144	1138	1133	1127	3.163	2.721	2.076	1.636	1.331
c1 = 2.983	1171	1168	1162	1156	1150	4.112	3.516	2.664	2.068	1.658
c1 = 3.448	1197	1194	1188	1182	1176	5.732	4.837	3.587	2.767	2.181

NCCCCCC(=O)[O-].[K+] [potassium Salt of 6-aminohexanoic acid] + O
Conditions	mass density, 298.15 K [kg/m3]	mass density, 303.15 K [kg/m3]	mass density, 313.15 K [kg/m3]	mass density, 323.15 K [kg/m3]	mass density, 333.15 K [kg/m3]	viscosity, 298.15 K [mPa·s]	viscosity, 303.15 K [mPa·s]	viscosity, 313.15 K [mPa·s]	viscosity, 323.15 K [mPa·s]	viscosity, 333.15 K [mPa·s]
c1 = 0.497	1024	1022	1018	1014	1009	1.191	1.058	0.854	0.706	0.599
c1 = 1.002	1049	1048	1044	1038	1034	1.608	1.418	1.126	0.913	0.762
c1 = 1.429	1072	1070	1067	1061	1057	2.152	1.882	1.497	1.199	0.987
c1 = 1.982	1098	1095	1089	1084	1078	3.091	2.669	2.035	1.608	1.307
c1 = 2.458	1119	1117	1111	1105	1098	4.445	3.796	2.85	2.211	1.768
c1 = 2.942	1141	1139	1132	1126	1118	6.601	5.573	4.112	3.145	2.458

NCCC(=O)[O-].[K+] [potassium Salt of B-alanine] + O
Conditions	mass density, 298.15 K [kg/m3]	mass density, 303.15 K [kg/m3]	mass density, 313.15 K [kg/m3]	mass density, 323.15 K [kg/m3]	mass density, 333.15 K [kg/m3]	viscosity, 298.15 K [mPa·s]	viscosity, 303.15 K [mPa·s]	viscosity, 313.15 K [mPa·s]	viscosity, 323.15 K [mPa·s]	viscosity, 333.15 K [mPa·s]
c1 = 0.496	1026	1024	1020	1017	1011	1.05	0.944	0.762	0.638	0.546
c1 = 1.003	1053	1053	1048	1043	1038	1.23	1.097	0.892	0.744	0.634
c1 = 1.492	1079	1078	1074	1070	1065	1.453	1.293	1.049	0.871	0.737
c1 = 2.019	1107	1106	1100	1096	1090	1.759	1.548	1.25	1.027	0.866
c1 = 2.492	1133	1131	1126	1121	1116	2.131	1.881	1.497	1.223	1.022
c1 = 2.964	1157	1155	1150	1145	1140	2.609	2.293	1.808	1.464	1.217
c1 = 3.417	1181	1179	1174	1169	1162	3.245	2.832	2.209	1.77	1.459
